# Results from patent US6410054B1, “Immediate release eplerenone compositions” (G. D. Searle & Co., priority 1998, dated 2002).
# How the values were obtained:
# [1] = Single dose study: plasma pharmacokinetics of eplerenone, open lactone ring form, spironolactone
# Method: The pharmacokinetics, safety and antialdosterone activity of single 10, 50, 100, 300 and 1000 mg oral doses of eplerenone were evaluated in a single-center, randomized, double-blind, placebo-controlled study.
# The study employed seven parallel dose groups of eight healthy male humans.
# The eplerenone capsules administered corresponded to the capsules (or combinations of the capsules) disclosed in Examples 4, 5, 7 and 8 above. The placebo was a conventional capsule containing lactose. […] The fludrocortisone used in the study consisted of commercially available fludrocortisone tablets (Florinef®, Squibb BV).
# (§1) The subjects, who underwent a ten hour food fast prior to administration of the dose, received a single oral dose of one of the study medications together with about 180 mL of water at 0800 hours. […] Each dose of fludrocortisone was administered with 150 mL of water except for the 1.0 mg dose which was administered with 200 mL of water.
# (§2) The plasma samples collected from subjects dosed with eplerenone were assayed for concentrations of eplerenone and the open lactone ring form of eplerenone. […] A subset of plasma samples was also assayed for testosterone levels. The urine collected was analyzed to determine concentrations and amounts of eplerenone and the open lactone ring form of eplerenone, the amount of sodium and potassium excreted, and the urinary log10 (sodium/potassium) ratio.
# aldosterone receptors [2] = target: T1, aldosterone receptors (Homo sapiens, UniProt P08235); assay: Single dose study: antialdosterone activity, urinary sodium and potassium after fludrocortisone; type: in vivo, humans; conditions: 50 mg dose
# T1 construct: endogenous in cells; host or cells: healthy male human subjects (in vivo)
# T1 sequence (P08235 1-984): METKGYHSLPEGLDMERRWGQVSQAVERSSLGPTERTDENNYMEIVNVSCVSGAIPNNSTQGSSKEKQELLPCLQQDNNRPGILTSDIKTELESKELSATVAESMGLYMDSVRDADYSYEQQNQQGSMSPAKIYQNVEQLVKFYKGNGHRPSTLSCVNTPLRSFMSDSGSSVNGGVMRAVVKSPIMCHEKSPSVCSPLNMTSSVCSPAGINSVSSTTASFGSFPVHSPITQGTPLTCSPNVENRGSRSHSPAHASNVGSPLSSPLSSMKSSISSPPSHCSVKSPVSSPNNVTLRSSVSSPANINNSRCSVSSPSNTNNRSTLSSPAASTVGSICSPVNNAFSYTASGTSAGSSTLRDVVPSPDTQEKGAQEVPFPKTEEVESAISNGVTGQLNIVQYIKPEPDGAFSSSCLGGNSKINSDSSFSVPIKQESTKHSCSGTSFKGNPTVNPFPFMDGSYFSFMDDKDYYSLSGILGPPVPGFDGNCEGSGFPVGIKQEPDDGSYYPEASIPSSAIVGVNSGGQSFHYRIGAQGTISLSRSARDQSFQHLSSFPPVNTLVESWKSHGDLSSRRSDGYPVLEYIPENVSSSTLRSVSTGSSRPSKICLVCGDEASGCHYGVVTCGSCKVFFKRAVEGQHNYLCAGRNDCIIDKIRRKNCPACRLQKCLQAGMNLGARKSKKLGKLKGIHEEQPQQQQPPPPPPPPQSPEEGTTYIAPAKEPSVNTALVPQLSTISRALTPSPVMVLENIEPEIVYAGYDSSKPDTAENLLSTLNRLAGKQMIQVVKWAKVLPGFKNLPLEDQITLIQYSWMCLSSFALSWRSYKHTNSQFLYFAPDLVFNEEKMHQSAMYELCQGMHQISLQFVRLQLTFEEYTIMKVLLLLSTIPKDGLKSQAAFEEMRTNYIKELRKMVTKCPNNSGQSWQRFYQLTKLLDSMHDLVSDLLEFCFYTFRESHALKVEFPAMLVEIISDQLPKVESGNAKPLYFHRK
# Method: Antialdosterone activity was determined based on urine levels of sodium and potassium following repeated administration of fludrocortisone. Safety was determined on the basis of laboratory tests, vital signs, and the occurrence and types of adverse events.
# as §1, §2
# aldosterone receptors [3] = target: T1, aldosterone receptors; assay: Multiple dose study: antialdosterone activity, urinary log10 (sodium/potassium); type: in vivo, humans; conditions: multiple dose administration
# Method: Multiple oral dose tolerability and the pharmacokinetics of several dosages of eplerenone were evaluated in a double-blind, randomized, placebo-controlled, rising oral dose, sequential panel study of 40 healthy male subjects (five groups of eight subjects). The study medication was administered in three sequential dose panels, with each panel including eplerenone, spironolactone and placebo. […] The 100 mg and 200 mg dose capsules corresponded to those described in Examples 7 and 8, respectively. […] Antialdosterone activity was determined following a fludrocortisone challenge on Days 12-13.
# blood pressure = assay: Treatment of hypertension study: blood pressure; type: in vivo, humans; conditions: 50 mg BID; eight weeks
# Method: (§3) The safety and efficacy of a range of doses of eplerenone in the treatment of hypertension relative to placebo were evaluated in a multi-center, randomized, double-blind, placebo-lead-in, parallel group study. […] The primary efficacy variable was the change in cuff diastolic blood pressure (ADBP; sitting) measured at trough plasma levels after eight weeks of double blind treatment. The secondary variables measured were the change in trough cuff systolic blood pressure (ΔSBP; sitting), change in 24 hour mean diastolic blood pressure (ΔDBP), and change in 24 hour mean systolic blood pressure (ΔSBP). The primary and secondary efficacy variables were analyzed to compare BID versus QD dosing regimens for each eplerenone dose group, and both eplerenone and spironolactone versus placebo. Changes in plasma renin and serum aldosterone after eight weeks of dosing were also analyzed as secondary measures of efficacy.
# The specific pharmaceutical compositions of each eplerenone capsule are reported in Examples 5, 6, 7 and 8. The placebo was a conventional capsule containing lactose.
# renin and aldosterone = assay: Treatment of hypertension study: plasma renin and serum aldosterone; type: in vivo, humans
# Method: as §3, with “study. […] Four hundred and seventeen patients were randomized to one of eight treatments: (i) placebo BID; […] (iv) eplerenone 400 mg QD; (v) eplerenone 25 mg BID;” for “study.”, “The primary and secondary efficacy variables were analyzed to compare BID versus QD dosing regimens for each eplerenone dose group, and both eplerenone and spironolactone versus placebo.” left out
smiles,measurement,setting,value
"CC(=O)S[C@@H]1CC2=CC(=O)CC[C@]2(C)[C@H]2CC[C@@]3(C)[C@@H](CC[C@@]34CCC(=O)O4)[C@H]12 [spironolactone, Spironolactone, reference compound]",Plasma Concentration Of Spironolactone,"[1]; 50 mg single oral dose, -0.25 h (predose)",0 ng/mL
same,concentration at 0.5 h,"[1]; male, human, plasma, po, 50 mg",10.5 ng/mL
same,concentration at 1 h,"[1]; male, human, plasma, po, 50 mg",23.6 ng/mL
same,concentration at 2 h,"[1]; male, human, plasma, po, 50 mg",14.4 ng/mL
same,concentration at 3 h,"[1]; male, human, plasma, po, 50 mg",14.3 ng/mL
same,concentration at 4 h,"[1]; male, human, plasma, po, 50 mg",4.8 ng/mL
same,concentration at 6 h,"[1]; male, human, plasma, po, 50 mg",0 ng/mL
same,concentration at 8 h,"[1]; male, human, plasma, po, 50 mg",0 ng/mL
same,concentration at 12 h,"[1]; male, human, plasma, po, 50 mg",0 ng/mL
same,concentration at 16 h,"[1]; male, human, plasma, po, 50 mg",0 ng/mL
same,concentration at 24 h,"[1]; male, human, plasma, po, 50 mg",0 ng/mL
same,concentration at 28 h,"[1]; male, human, plasma, po, 50 mg",0 ng/mL
same,concentration at 32 h,"[1]; male, human, plasma, po, 50 mg",0 ng/mL
same,concentration at 48 h,"[1]; male, human, plasma, po, 50 mg",0 ng/mL
same,concentration at 72 h,"[1]; male, human, plasma, po, 50 mg",0 ng/mL
same,concentration at 96 h,"[1]; male, human, plasma, po, 50 mg",0 ng/mL
same,Urinary Potassium Excretion,aldosterone receptors [2]; 0 to 2 hours,7.5 mmol
same,Urinary Sodium Excretion,aldosterone receptors [2]; 0 to 2 hours,4.1 mmol
same,Urinary Potassium Excretion,aldosterone receptors [2]; 2 to 4 hours,11.8 mmol
same,Urinary Sodium Excretion,aldosterone receptors [2]; 2 to 4 hours,8.5 mmol
same,Urinary Potassium Excretion,aldosterone receptors [2]; 4 to 6 hours,10.2 mmol
same,Urinary Sodium Excretion,aldosterone receptors [2]; 4 to 6 hours,9.4 mmol
same,Urinary Potassium Excretion,aldosterone receptors [2]; 6 to 8 hours,13.3 mmol
same,Urinary Sodium Excretion,aldosterone receptors [2]; 6 to 8 hours,14.8 mmol
same,Urinary Potassium Excretion,aldosterone receptors [2]; 8 to 10 hours,17.9 mmol
same,Urinary Sodium Excretion,aldosterone receptors [2]; 8 to 10 hours,13.4 mmol
same,Urinary Potassium Excretion,aldosterone receptors [2]; 10 to 12 hours,12.5 mmol
same,Urinary Sodium Excretion,aldosterone receptors [2]; 10 to 12 hours,8.4 mmol
same,Urinary Potassium Excretion,aldosterone receptors [2]; 12 to 14 hours,20.6 mmol
same,Urinary Sodium Excretion,aldosterone receptors [2]; 12 to 14 hours,11.5 mmol
same,Urinary Potassium Excretion,aldosterone receptors [2]; 14 to 16 hours,11.4 mmol
same,Urinary Sodium Excretion,aldosterone receptors [2]; 14 to 16 hours,5.9 mmol
same,Urinary Potassium Excretion,aldosterone receptors [2]; 16 to 24 hours,27.9 mmol
same,Urinary Sodium Excretion,aldosterone receptors [2]; 16 to 24 hours,11.8 mmol
same,Urinary Potassium Excretion,aldosterone receptors [2]; −9 to 0 hours,26.9 mmol
same,Urinary Sodium Excretion,aldosterone receptors [2]; −9 to 0 hours,29.1 mmol
same,urinary log10 (sodium/potassium) values,aldosterone receptors [3],no sustained increase
same,24 hour mean ΔDBP,blood pressure,−8.9 mmHg
same,24 hour mean ΔSBP,blood pressure,−15.7 mmHg
same,Primary Efficacy Variable: ΔDBP at trough (sitting),blood pressure,−9.5 mmHg
same,ΔSBP at trough (sitting),blood pressure,−17.6 mmHg
same,Plasma Renin Active Mean Change From Baseline,renin and aldosterone; 50 mg BID,13.3 mU/L
same,Serum Aldosterone Mean Change From Baseline,renin and aldosterone; 50 mg BID,19.2 ng/dL
same,aldosterone compared to placebo,renin and aldosterone; eight weeks of dosing,increases
same,total and active renin levels,renin and aldosterone; eight weeks of dosing,increases
